Data set [1] concerns the target 3',5'-cyclic-AMP phosphodiesterase 4D (Homo sapiens, UniProt Q08499). Description: Inhibition of PDE4D2 (86-413) (unknown origin) expressed in Escherichia coli BL21 assessed as using [3H]-cAMP as substrate measured for 15 mins by liquid scintillation counting analysis.
Data set [2] concerns the target 3',5'-cyclic-AMP phosphodiesterase 4B (Homo sapiens, UniProt Q07343). The data set is described as follows: Inhibition of PDE4B2 (152-487) (unknown origin) expressed in Escherichia coli BL21 assessed as using [3H]-cAMP as substrate measured for 15 mins by liquid scintillation counting analysis.
The target in data set [3] is cGMP-inhibited 3',5'-cyclic phosphodiesterase 3A (Homo sapiens, UniProt Q14432). The data set is described as follows: Inhibition of PDE3A (679-1087) (unknown origin) expressed in Escherichia coli BL21 assessed as using [3H]-cAMP as substrate measured for 15 mins by liquid scintillation counting analysis.
Sequence of cGMP-inhibited 3',5'-cyclic phosphodiesterase 3A (Q14432 whole entry): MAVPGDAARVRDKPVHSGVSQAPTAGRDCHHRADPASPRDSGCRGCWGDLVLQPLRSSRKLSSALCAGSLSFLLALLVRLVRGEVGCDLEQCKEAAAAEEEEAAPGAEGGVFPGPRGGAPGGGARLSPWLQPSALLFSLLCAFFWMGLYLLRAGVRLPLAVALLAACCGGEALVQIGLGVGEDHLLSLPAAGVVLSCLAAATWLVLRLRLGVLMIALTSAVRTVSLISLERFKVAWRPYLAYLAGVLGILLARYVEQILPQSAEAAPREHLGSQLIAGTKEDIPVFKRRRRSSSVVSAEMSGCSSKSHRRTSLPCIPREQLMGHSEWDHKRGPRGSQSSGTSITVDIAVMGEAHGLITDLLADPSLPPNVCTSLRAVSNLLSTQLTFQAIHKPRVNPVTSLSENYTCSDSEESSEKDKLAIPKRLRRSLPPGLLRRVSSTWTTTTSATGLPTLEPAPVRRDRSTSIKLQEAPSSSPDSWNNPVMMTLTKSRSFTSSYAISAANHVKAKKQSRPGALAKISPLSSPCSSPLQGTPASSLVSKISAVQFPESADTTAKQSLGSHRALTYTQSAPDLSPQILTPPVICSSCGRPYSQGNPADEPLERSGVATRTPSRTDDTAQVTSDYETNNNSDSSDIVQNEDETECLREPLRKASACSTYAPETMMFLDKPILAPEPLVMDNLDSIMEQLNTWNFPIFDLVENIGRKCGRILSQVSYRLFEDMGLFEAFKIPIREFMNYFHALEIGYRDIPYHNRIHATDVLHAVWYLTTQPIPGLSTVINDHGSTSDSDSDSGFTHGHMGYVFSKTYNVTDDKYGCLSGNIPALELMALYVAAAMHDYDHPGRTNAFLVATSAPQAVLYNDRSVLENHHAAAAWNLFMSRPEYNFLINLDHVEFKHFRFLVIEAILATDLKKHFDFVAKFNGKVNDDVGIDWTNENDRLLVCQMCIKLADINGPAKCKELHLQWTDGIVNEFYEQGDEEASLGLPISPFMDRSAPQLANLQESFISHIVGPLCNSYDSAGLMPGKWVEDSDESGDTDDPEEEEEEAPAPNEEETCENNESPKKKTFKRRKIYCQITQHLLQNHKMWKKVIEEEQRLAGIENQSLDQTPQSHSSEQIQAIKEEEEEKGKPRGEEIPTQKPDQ
Data set [4] has as its target cAMP and cAMP-inhibited cGMP 3',5'-cyclic phosphodiesterase 10A (Homo sapiens, UniProt Q9Y233). Description: Inhibition of PDE10A2 (449-770) (unknown origin) expressed in Escherichia coli BL21 assessed as using [3H]-cAMP as substrate measured for 15 mins by liquid scintillation counting analysis.
Data set [5] is described as follows: Half life in Sprague-Dawley rat at 5 mg/kg, po. Type of data set: ADME, organism-based. As to conditions: in vivo.
A short description of data set [6]: Half life in Sprague-Dawley rat at10 mg/kg, po. In kind it is ADME, organism-based. As to conditions: in vivo, dose 10 mg/kg.
A short description of data set [7]: Tmax in Sprague-Dawley rat at 5 mg/kg, po. Type of data set: ADME, organism-based. As to conditions: in vivo.
Data set [8] can be described thus: Tmax in Sprague-Dawley rat at 10 mg/kg, po. Type of data set: ADME, organism-based. As to conditions: in vivo.
Data set [9] is described as follows: Cmax in Sprague-Dawley rat at 10 mg/kg, po. Type of data set: ADME, organism-based. As to conditions: in vivo. The arrangement: route oral, dose 10 mg/kg.
Data set [10] deals with Voltage-gated inwardly rectifying potassium channel KCNH2 (Homo sapiens, UniProt Q12809). Description: Inhibition of human ERG.
Sequence of Voltage-gated inwardly rectifying potassium channel KCNH2 (Q12809 whole entry): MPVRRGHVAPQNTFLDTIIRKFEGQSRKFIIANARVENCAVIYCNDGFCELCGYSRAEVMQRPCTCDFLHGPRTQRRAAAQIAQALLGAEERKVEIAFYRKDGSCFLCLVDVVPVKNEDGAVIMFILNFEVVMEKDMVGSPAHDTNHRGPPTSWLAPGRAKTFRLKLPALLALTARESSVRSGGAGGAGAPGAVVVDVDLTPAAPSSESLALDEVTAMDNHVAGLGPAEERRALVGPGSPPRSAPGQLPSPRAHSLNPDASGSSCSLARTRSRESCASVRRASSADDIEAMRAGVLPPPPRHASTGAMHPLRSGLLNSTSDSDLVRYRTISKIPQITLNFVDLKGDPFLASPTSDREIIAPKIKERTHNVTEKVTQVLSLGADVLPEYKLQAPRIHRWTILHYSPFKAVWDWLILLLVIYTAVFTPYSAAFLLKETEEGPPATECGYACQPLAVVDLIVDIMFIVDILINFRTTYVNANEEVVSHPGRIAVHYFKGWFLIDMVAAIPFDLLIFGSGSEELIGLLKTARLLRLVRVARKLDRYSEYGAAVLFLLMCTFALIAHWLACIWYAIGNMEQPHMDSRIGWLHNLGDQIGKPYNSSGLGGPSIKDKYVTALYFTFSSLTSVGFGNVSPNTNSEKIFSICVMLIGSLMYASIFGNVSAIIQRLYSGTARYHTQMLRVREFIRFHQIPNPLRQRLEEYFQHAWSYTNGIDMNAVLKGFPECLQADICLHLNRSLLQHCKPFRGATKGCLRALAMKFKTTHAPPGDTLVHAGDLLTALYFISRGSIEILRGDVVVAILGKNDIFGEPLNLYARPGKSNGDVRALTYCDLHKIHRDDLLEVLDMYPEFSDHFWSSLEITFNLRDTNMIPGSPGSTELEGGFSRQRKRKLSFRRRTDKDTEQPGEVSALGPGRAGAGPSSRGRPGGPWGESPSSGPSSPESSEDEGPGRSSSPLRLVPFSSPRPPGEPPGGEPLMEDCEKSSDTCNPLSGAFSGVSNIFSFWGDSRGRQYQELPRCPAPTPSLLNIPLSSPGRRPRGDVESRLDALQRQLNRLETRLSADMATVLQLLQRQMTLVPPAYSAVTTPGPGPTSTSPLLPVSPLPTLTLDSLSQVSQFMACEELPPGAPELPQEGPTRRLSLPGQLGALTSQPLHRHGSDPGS
Another data set addresses Cytochrome P450 3A4 (Homo sapiens, UniProt P08684). The data set is described as follows: Inhibition of human hepatic CYP3A4. In kind it is ADME, tissue-based, Liver.
A further data set has as its target Cytochrome P450 2C9 (Homo sapiens, UniProt P11712). Description: Inhibition of human hepatic CYP2C9. Type of data set: ADME, tissue-based, Liver.
Data set [11] is described as follows: Toxicity in mouse assessed as change in body weight at 1.5 g/Kg, po. As to conditions: in vivo, 1500 mg/kg.
Data set [12] in a line: Solubility of the compound in deionized water. Type of data set: physicochemical.
The test system of the next data set is Rattus norvegicus. The data set is described as follows: Anti-idiopathic pulmonary fibrotic activity in bleomycin-induced Sprague-Dawley rat model assessed as reversal of enhanced pause at 10 mg/kg, po treated for 28 consecutive days relative to control. Type of data set: functional, organism-based.
The subject of data set [13] is A549. Description: Anti-idiopathic pulmonary fibrotic activity in human A549 cells assessed as reduction in TGF-beta-induced N-cadherin expression measured after 48 hrs by Western blot analysis. In kind it is functional, cell-based. As to conditions: dose 10-20 µM. Background: A western blot detects proteins with antibodies after separation by electrophoresis.
For data set [14], the system named is A549. Description: Anti-idiopathic pulmonary fibrotic activity in human A549 cells assessed as reduction in TGF-beta-induced vimentin expression measured after 48 hrs by Western blot analysis. In kind it is functional, cell-based. As to conditions: dose 10-20 µM.
The subject of data set [15] is A549. The data set is described as follows: Anti-idiopathic pulmonary fibrotic activity in human A549 cells assessed as reduction in TGF-beta-induced fibronectin expression measured after 48 hrs by Western blot analysis. In kind it is functional, cell-based. As to conditions: dose 10-20 µM.

Converted amounts (≈) assume the structure as drawn. The source made the active and inactive calls. The calls are words filed in the database; no cut-off is given here. A value given as a limit tells only on which side of the number the result lay.

Sequence of Cytochrome P450 2C9 (P11712 whole entry): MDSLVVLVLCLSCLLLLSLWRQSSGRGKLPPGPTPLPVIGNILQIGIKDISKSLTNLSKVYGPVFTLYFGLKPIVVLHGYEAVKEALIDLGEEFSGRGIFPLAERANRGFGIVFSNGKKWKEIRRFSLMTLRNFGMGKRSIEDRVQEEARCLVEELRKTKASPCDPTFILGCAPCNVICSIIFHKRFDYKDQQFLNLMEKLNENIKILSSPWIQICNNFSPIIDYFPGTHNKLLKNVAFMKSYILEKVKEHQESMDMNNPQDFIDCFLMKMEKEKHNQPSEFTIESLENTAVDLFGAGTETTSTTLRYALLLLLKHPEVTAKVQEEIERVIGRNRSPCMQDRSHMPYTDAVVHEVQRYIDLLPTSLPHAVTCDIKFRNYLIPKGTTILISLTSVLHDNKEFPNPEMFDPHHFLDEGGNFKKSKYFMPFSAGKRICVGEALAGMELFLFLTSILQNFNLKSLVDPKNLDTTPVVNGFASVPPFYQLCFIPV
Sequence of 3',5'-cyclic-AMP phosphodiesterase 4D (Q08499 whole entry): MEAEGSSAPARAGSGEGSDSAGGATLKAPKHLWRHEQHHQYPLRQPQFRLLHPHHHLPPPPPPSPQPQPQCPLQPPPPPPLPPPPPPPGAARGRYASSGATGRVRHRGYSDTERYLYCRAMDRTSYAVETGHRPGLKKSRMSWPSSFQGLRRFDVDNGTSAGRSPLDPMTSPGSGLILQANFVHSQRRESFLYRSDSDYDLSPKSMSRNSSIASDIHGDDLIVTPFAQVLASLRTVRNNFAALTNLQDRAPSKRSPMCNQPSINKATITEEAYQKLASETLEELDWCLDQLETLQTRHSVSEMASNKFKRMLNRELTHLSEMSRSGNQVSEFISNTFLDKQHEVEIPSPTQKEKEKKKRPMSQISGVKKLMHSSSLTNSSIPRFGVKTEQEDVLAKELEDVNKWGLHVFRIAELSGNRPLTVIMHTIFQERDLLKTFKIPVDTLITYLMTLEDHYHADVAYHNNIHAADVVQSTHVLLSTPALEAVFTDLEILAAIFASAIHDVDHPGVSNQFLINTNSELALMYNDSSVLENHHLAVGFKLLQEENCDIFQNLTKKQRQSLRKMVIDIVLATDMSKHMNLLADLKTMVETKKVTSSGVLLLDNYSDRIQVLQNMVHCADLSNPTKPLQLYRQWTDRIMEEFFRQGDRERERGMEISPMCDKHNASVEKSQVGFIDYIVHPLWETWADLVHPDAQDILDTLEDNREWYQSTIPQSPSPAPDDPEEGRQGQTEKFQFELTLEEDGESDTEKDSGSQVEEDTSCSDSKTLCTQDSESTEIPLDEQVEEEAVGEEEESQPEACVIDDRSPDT
Sequence of Cytochrome P450 3A4 (P08684 whole entry): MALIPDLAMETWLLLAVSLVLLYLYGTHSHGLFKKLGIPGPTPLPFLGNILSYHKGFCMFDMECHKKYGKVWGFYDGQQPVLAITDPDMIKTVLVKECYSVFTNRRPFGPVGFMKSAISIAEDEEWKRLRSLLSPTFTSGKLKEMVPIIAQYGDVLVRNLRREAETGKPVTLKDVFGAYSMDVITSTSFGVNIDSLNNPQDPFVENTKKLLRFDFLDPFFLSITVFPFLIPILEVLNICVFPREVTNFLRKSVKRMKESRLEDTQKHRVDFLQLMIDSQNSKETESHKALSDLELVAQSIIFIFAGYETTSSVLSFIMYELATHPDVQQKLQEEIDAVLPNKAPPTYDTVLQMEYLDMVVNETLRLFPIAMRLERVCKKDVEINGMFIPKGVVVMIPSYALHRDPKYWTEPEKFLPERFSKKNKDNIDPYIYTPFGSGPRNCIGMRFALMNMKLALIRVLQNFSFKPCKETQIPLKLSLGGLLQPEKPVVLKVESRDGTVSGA
Sequence of 3',5'-cyclic-AMP phosphodiesterase 4B (Q07343 whole entry): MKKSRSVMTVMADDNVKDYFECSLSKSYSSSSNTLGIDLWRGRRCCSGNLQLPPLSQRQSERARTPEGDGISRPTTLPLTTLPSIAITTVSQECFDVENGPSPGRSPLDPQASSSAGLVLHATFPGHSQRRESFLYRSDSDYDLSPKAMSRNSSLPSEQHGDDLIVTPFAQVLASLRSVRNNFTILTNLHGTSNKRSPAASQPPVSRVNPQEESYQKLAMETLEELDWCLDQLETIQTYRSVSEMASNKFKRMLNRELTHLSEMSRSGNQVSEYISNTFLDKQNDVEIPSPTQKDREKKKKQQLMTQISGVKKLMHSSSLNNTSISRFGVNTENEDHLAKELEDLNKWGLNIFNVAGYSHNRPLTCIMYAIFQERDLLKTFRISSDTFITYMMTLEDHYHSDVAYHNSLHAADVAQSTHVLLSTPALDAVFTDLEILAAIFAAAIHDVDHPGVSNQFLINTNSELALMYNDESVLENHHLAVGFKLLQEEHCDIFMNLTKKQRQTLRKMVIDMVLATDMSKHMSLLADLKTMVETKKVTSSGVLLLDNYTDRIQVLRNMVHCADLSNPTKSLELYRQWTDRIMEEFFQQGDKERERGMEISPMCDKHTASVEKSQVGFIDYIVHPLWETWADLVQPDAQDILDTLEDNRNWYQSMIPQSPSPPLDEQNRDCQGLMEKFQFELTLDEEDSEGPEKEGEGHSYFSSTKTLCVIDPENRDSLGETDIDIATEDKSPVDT

With `COc1c(OCc2ccc(F)cc2)cc2oc3cc4c(c(OC/C=C/C(=O)O)c3c(=O)c2c1CC=C(C)C)C=CC(C)(C)O4`, the 50% inhibitory concentration (IC50) (commonly the concentration at which inhibition is half-maximal) was 15 nM in data set [1]; 140 nM in data set [2]; above 10000 nM in [3]; 260 nM in data set [4]; above 40000 nM in data set [10]; above 25000 nM at Cytochrome P450 3A4. This molecule also displayed a half-maximal inhibitory concentration (IC50) on Cytochrome P450 2C9 of 1700 nM. The half-life (usually how long it takes for the measured level to halve) is 1.55 h in data set [5] and 1.02 h in [6]. Also, the time to peak (Tmax) in data set [7] and in [8] was 1 h in each case. Moreover, the highest level in data set [9] (Cmax) was 1070 ng/mL. The Activity result in data set [11] was “Non-Toxic”; with A549 [13], “Dose-Dependent Effect”; in the data set with A549 [14], “Dose-Dependent Effect”; in the data set with A549 [15], “Dose-Dependent Effect”. Also, the solubility – broadly, the concentration that dissolves in the medium under given conditions – in data set [12] was found to be 1.1 µg/mL (≈ 1.83 µM). The outcome in the data set on Rattus norvegicus was Active.

The values above are taken from ChEMBL document CHEMBL4831531, “Mangostanin Derivatives as Novel and Orally Active Phosphodiesterase 4 Inhibitors for the Treatment of Idiopathic Pulmonary Fibrosis with Improved Safety” (J Med Chem, 2021).
